Data reported in the supplement of paper PMC12463676, “Small-molecule dissolution of stress granules by redox modulation benefits ALS models” (Nature Chemical Biology, 2025).

How the values were obtained:
lipoamide = compound: NC(=O)CCCCC1CCSS1 [lipoamide]; test: thermal stability z-score vs DMSO; higher = more thermally stabilized by treatment; conditions: HeLa, lipoamide concentration 100 µM
Description: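 Cellular thermal proteome profiling in HeLa cells. Cells were treated with 100 µM lipoamide for 1 h, with or without 1 mM arsenate for a further 1 h, then heated to ten temperatures (37-66.3 °C), and soluble protein was quantified by TMT mass spectrometry relative to 0.1% DMSO controls. The thermal stability score (sum of log2 fold changes minus the abundance score) was transformed to a z-score; mean of n = 3 experiments.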

potassium arsenate = compound: O=[As]([O-])(O)O.[K+] [potassium arsenate]; test: as above; conditions: HeLa; arsenate concentration 1 mM
Description: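 Cellular thermal proteome profiling in HeLa cells treated with 1 mM arsenate for 1 h (DMSO pretreatment), heated to ten temperatures (37-66.3 °C). Soluble protein was quantified by TMT mass spectrometry relative to DMSO controls; the thermal stability score was transformed to a z-score; mean of n = 3 experiments.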

[1] = arsenate co-treatment: 1 mM arsenate 1 h
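Further: each temperature applied for 3 min, abundance score taken as mean log2 fold change at the two lowest temperatures, z-score obtained by mean subtraction and division by SD.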

## ACADVL (UniProt P49748)
lipoamide; [1]
  thermal stability z-score: -0.94
lipoamide; arsenate co-treatment: none
  thermal stability z-score: -1.06
Potassium arsenate
  thermal stability z-score: -0.558

## ACAP2 (UniProt Q15057)
lipoamide; [1]
  thermal stability z-score: -0.177
lipoamide; arsenate co-treatment: none
  thermal stability z-score: 0.0236
Potassium arsenate
  thermal stability z-score: -0.178

## ACAT1 (UniProt P24752)
lipoamide; [1]
  thermal stability z-score: 0.399
lipoamide; arsenate co-treatment: none
  thermal stability z-score: 1.07
Potassium arsenate
  thermal stability z-score: 0.878

## ACAT2 (UniProt Q9BWD1)
lipoamide; [1]
  thermal stability z-score: -0.0152
lipoamide; arsenate co-treatment: none
  thermal stability z-score: 6.3e-05
Potassium arsenate
  thermal stability z-score: -0.347

## ACBD3 (UniProt Q9H3P7)
lipoamide; [1]
  thermal stability z-score: 0.447
lipoamide; arsenate co-treatment: none
  thermal stability z-score: 0.826
Potassium arsenate
  thermal stability z-score: 0.21

## ACBD5 (UniProt Q5T8D3)
Sequence of UniProt Q5T8D3 (Q5T8D3 whole entry): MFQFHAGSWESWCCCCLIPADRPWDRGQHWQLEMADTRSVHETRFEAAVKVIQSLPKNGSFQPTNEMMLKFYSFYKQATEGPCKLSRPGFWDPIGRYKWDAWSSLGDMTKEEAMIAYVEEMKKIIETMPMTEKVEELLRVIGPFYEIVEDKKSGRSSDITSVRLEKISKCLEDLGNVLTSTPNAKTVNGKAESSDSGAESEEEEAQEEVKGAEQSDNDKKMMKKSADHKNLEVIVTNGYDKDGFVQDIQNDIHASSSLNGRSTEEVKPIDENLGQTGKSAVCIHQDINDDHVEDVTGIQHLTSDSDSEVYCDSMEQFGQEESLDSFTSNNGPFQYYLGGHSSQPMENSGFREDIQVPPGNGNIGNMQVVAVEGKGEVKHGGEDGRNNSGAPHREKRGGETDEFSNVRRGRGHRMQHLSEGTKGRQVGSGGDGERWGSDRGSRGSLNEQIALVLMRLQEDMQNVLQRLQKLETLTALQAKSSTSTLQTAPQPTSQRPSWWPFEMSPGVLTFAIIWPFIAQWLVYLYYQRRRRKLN
lipoamide; [1]
  thermal stability z-score: -1.5
lipoamide; arsenate co-treatment: none
  thermal stability z-score: -0.737
Potassium arsenate
  thermal stability z-score: 0.243

## ACBD6 (UniProt Q9BR61)
lipoamide; [1]
  thermal stability z-score: -1.02
lipoamide; arsenate co-treatment: none
  thermal stability z-score: -0.756
Potassium arsenate
  thermal stability z-score: -0.675

## ACIN1 (UniProt Q9UKV3)
lipoamide; [1]
  thermal stability z-score: 1.66
lipoamide; arsenate co-treatment: none
  thermal stability z-score: 0.763
Potassium arsenate
  thermal stability z-score: 0.115

## ACLY (UniProt P53396)
lipoamide; [1]
  thermal stability z-score: 0.0389
lipoamide; arsenate co-treatment: none
  thermal stability z-score: -0.136
Potassium arsenate
  thermal stability z-score: -0.944

## ACO1 (UniProt P21399)
lipoamide; [1]
  thermal stability z-score: 0.259
lipoamide; arsenate co-treatment: none
  thermal stability z-score: -0.252
Potassium arsenate
  thermal stability z-score: -0.945

## ACO2 (UniProt Q99798)
lipoamide; [1]
  thermal stability z-score: -0.488
lipoamide; arsenate co-treatment: none
  thermal stability z-score: -0.402
Potassium arsenate
  thermal stability z-score: -1.08

## ACOT7 (UniProt O00154)
lipoamide; [1]
  thermal stability z-score: 0.237
lipoamide; arsenate co-treatment: none
  thermal stability z-score: 0.304
Potassium arsenate
  thermal stability z-score: -0.151

## ACOT8 (UniProt O14734)
lipoamide; [1]
  thermal stability z-score: 0.492
lipoamide; arsenate co-treatment: none
  thermal stability z-score: 0.113
Potassium arsenate
  thermal stability z-score: 0.0313

## ACOT9 (UniProt Q9Y305)
lipoamide; [1]
  thermal stability z-score: 0.00609
lipoamide; arsenate co-treatment: none
  thermal stability z-score: 0.283
Potassium arsenate
  thermal stability z-score: -0.344

## ACOT13 (UniProt Q9NPJ3)
Sequence of UniProt Q9NPJ3 (Q9NPJ3 whole entry): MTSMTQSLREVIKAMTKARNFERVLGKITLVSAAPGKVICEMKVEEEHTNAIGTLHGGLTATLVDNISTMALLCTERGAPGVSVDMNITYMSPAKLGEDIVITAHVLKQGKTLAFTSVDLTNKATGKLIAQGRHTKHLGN
lipoamide; [1]
  thermal stability z-score: -0.279
lipoamide; arsenate co-treatment: none
  thermal stability z-score: -0.198
Potassium arsenate
  thermal stability z-score: -0.202

## ACOX1 (UniProt Q15067)
lipoamide; [1]
  thermal stability z-score: 0.516
lipoamide; arsenate co-treatment: none
  thermal stability z-score: 0.379
Potassium arsenate
  thermal stability z-score: 0.389

## ACP1 (UniProt P24666)
lipoamide; [1]
  thermal stability z-score: -0.147
lipoamide; arsenate co-treatment: none
  thermal stability z-score: -0.0266
Potassium arsenate
  thermal stability z-score: -1.2

## ACP2 (UniProt P11117)
Sequence of UniProt P11117 (P11117 whole entry): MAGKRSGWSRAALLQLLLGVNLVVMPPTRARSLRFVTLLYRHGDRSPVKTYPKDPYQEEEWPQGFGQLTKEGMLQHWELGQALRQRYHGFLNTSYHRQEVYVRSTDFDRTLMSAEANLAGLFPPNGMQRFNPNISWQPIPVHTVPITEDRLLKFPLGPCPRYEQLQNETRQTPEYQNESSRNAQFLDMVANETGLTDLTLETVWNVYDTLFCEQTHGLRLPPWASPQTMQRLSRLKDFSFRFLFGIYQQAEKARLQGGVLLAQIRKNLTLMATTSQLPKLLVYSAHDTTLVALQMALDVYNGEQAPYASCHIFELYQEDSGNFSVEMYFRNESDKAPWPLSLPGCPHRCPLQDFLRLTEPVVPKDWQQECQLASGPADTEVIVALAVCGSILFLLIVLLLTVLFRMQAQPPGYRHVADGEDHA
lipoamide; [1]
  thermal stability z-score: -0.226
lipoamide; arsenate co-treatment: none
  thermal stability z-score: -0.57
Potassium arsenate
  thermal stability z-score: 0.375

## ACSF2 (UniProt Q96CM8)
lipoamide; [1]
  thermal stability z-score: -0.634
lipoamide; arsenate co-treatment: none
  thermal stability z-score: -0.524
Potassium arsenate
  thermal stability z-score: -0.301

## ACSF3 (UniProt Q4G176)
lipoamide; [1]
  thermal stability z-score: -0.68
lipoamide; arsenate co-treatment: none
  thermal stability z-score: 0.39
Potassium arsenate
  thermal stability z-score: 0.298

## ACSL1 (UniProt P33121)
lipoamide; [1]
  thermal stability z-score: 0.922
lipoamide; arsenate co-treatment: none
  thermal stability z-score: 0.82
Potassium arsenate
  thermal stability z-score: 0.682

## ACSL3 (UniProt O95573)
lipoamide; [1]
  thermal stability z-score: -0.87
lipoamide; arsenate co-treatment: none
  thermal stability z-score: -0.498
Potassium arsenate
  thermal stability z-score: -0.39

## ACSL4 (UniProt O60488)
lipoamide; [1]
  thermal stability z-score: 0.208
lipoamide; arsenate co-treatment: none
  thermal stability z-score: 0.296
Potassium arsenate
  thermal stability z-score: -1.66

## ACSS2 (UniProt Q9NR19)
lipoamide; [1]
  thermal stability z-score: 0.198
lipoamide; arsenate co-treatment: none
  thermal stability z-score: 0.512
Potassium arsenate
  thermal stability z-score: -0.517

## ACTG1 (UniProt P63261)
lipoamide; [1]
  thermal stability z-score: -0.494
lipoamide; arsenate co-treatment: none
  thermal stability z-score: -0.484
Potassium arsenate
  thermal stability z-score: -0.572

## ACTL6A (UniProt O96019)
lipoamide; [1]
  thermal stability z-score: 2.1
lipoamide; arsenate co-treatment: none
  thermal stability z-score: 0.96
Potassium arsenate
  thermal stability z-score: -0.336

## ACTN1 (UniProt P12814)
lipoamide; [1]
  thermal stability z-score: 0.249
lipoamide; arsenate co-treatment: none
  thermal stability z-score: 0.339
Potassium arsenate
  thermal stability z-score: 0.163

## ACTN4 (UniProt O43707)
Sequence of UniProt O43707 (O43707 whole entry): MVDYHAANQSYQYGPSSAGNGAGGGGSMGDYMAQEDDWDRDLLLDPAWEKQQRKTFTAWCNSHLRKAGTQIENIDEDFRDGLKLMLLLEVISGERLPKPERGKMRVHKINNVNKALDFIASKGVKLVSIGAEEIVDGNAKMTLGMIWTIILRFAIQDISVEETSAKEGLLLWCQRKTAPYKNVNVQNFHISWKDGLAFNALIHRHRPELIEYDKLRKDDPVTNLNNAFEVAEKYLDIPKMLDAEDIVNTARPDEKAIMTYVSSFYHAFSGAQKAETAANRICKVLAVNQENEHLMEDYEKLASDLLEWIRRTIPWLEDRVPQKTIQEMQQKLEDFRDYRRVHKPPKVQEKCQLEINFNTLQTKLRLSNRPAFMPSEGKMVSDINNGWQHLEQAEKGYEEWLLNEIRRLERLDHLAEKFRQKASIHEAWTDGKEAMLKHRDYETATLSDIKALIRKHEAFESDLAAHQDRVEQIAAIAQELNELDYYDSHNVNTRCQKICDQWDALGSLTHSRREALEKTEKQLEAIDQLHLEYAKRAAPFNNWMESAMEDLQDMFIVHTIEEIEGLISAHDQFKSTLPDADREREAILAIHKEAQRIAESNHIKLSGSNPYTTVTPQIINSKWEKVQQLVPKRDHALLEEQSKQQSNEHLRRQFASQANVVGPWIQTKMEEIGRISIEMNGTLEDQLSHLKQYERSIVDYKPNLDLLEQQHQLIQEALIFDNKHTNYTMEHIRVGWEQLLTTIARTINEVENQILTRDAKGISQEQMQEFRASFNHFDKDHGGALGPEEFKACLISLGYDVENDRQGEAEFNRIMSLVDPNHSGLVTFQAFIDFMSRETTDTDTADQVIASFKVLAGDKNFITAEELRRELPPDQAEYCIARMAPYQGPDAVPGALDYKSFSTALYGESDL
lipoamide; [1]
  thermal stability z-score: 0.262
lipoamide; arsenate co-treatment: none
  thermal stability z-score: 0.364
Potassium arsenate
  thermal stability z-score: 0.498

## ACTR1A (UniProt P61163)
lipoamide; [1]
  thermal stability z-score: 0.0148
lipoamide; arsenate co-treatment: none
  thermal stability z-score: 0.0511
Potassium arsenate
  thermal stability z-score: -0.614

## ACTR1B (UniProt P42025)
lipoamide; [1]
  thermal stability z-score: 1.04
lipoamide; arsenate co-treatment: none
  thermal stability z-score: 0.945
Potassium arsenate
  thermal stability z-score: 0.0363

## ACTR2 (UniProt P61160)
lipoamide; [1]
  thermal stability z-score: -0.116
lipoamide; arsenate co-treatment: none
  thermal stability z-score: -0.175
Potassium arsenate
  thermal stability z-score: -0.487

## ACTR3 (UniProt P61158)
lipoamide; [1]
  thermal stability z-score: -0.149
lipoamide; arsenate co-treatment: none
  thermal stability z-score: 0.128
Potassium arsenate
  thermal stability z-score: -0.483

## ACTR5 (UniProt Q9H9F9)
lipoamide; [1]
  thermal stability z-score: -0.0353
lipoamide; arsenate co-treatment: none
  thermal stability z-score: -0.0633
Potassium arsenate
  thermal stability z-score: -0.0841

## ACTR6 (UniProt Q9GZN1)
Sequence of UniProt Q9GZN1 (Q9GZN1 whole entry): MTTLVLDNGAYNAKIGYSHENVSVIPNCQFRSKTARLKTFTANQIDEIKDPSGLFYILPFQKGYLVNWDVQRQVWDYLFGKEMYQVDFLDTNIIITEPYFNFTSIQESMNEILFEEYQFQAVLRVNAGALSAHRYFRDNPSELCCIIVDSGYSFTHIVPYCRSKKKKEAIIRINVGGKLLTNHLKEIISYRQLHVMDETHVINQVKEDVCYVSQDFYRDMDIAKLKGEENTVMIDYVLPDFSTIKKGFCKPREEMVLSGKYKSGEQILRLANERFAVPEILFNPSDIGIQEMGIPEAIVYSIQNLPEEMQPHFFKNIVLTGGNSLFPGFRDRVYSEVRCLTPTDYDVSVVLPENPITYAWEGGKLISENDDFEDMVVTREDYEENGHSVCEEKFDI
lipoamide; [1]
  thermal stability z-score: 0.151
lipoamide; arsenate co-treatment: none
  thermal stability z-score: -0.182
Potassium arsenate
  thermal stability z-score: -0.13

## ACTR8 (UniProt Q9H981)
lipoamide; [1]
  thermal stability z-score: -0.154
lipoamide; arsenate co-treatment: none
  thermal stability z-score: -0.0898
Potassium arsenate
  thermal stability z-score: -0.347

## ACTR10 (UniProt Q9NZ32)
lipoamide; [1]
  thermal stability z-score: -0.106
lipoamide; arsenate co-treatment: none
  thermal stability z-score: 0.0788
Potassium arsenate
  thermal stability z-score: -0.312

## ACY1 (UniProt Q03154)
Sequence of UniProt Q03154 (Q03154 whole entry): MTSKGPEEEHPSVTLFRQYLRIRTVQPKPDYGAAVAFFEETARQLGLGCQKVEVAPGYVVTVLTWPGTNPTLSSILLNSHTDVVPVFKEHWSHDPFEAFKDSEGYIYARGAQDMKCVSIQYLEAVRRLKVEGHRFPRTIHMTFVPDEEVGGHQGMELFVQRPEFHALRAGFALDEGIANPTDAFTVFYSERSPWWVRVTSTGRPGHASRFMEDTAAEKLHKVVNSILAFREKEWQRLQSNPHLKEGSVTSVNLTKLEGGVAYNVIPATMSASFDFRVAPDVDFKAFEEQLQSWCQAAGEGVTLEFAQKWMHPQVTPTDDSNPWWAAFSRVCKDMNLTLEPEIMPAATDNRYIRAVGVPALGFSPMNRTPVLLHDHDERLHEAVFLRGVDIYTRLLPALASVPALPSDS
lipoamide; [1]
  thermal stability z-score: 0.304
lipoamide; arsenate co-treatment: none
  thermal stability z-score: 0.38
Potassium arsenate
  thermal stability z-score: 0.873

## ACYP1 (UniProt P07311)
lipoamide; [1]
  thermal stability z-score: -0.11
lipoamide; arsenate co-treatment: none
  thermal stability z-score: -0.304
Potassium arsenate
  thermal stability z-score: -0.451

## ACYP2 (UniProt P14621)
Sequence of UniProt P14621 (P14621 whole entry): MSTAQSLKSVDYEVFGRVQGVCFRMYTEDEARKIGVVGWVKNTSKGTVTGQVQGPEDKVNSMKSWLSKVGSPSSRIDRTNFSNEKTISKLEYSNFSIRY
lipoamide; [1]
  thermal stability z-score: 0.611
lipoamide; arsenate co-treatment: none
  thermal stability z-score: 0.261
Potassium arsenate
  thermal stability z-score: -0.0225

## ADA (UniProt P00813)
lipoamide; [1]
  thermal stability z-score: 0.792
lipoamide; arsenate co-treatment: none
  thermal stability z-score: 0.403
Potassium arsenate
  thermal stability z-score: -0.000857

## ADAM9 (UniProt Q13443)
lipoamide; [1]
  thermal stability z-score: -0.535
lipoamide; arsenate co-treatment: none
  thermal stability z-score: -0.428
Potassium arsenate
  thermal stability z-score: 0.397

## ADAM10 (UniProt O14672)
lipoamide; [1]
  thermal stability z-score: -1.72
lipoamide; arsenate co-treatment: none
  thermal stability z-score: -1.52
Potassium arsenate
  thermal stability z-score: -0.0434

## ADAM15 (UniProt Q13444)
Sequence of UniProt Q13444 (Q13444 whole entry): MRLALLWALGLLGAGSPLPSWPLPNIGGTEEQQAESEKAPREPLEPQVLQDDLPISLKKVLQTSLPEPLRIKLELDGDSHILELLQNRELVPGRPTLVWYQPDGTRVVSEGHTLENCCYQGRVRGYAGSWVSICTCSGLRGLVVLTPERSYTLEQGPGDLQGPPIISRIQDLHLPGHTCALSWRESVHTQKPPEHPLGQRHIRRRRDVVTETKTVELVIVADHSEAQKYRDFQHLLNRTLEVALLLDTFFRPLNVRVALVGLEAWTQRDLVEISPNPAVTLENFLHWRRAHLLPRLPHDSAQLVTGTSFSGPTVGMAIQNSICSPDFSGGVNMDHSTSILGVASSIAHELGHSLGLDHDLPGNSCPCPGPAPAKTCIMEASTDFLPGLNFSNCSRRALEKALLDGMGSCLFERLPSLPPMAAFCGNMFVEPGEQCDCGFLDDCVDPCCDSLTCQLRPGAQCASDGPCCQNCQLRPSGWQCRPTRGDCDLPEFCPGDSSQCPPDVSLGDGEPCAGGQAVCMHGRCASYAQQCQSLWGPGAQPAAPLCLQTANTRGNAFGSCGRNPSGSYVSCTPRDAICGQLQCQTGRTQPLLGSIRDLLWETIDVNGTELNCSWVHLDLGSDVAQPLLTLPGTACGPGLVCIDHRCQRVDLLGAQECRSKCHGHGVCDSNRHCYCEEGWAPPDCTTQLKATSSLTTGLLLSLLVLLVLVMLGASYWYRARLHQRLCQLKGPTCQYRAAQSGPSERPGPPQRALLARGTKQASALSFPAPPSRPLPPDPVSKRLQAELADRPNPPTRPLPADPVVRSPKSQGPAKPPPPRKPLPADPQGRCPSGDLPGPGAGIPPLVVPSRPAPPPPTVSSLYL
lipoamide; [1]
  thermal stability z-score: -1.37
lipoamide; arsenate co-treatment: none
  thermal stability z-score: -1.49
Potassium arsenate
  thermal stability z-score: -0.1

## ADAM17 (UniProt P78536)
lipoamide; [1]
  thermal stability z-score: -1.11
lipoamide; arsenate co-treatment: none
  thermal stability z-score: -0.994
Potassium arsenate
  thermal stability z-score: -0.966

## ADAR (UniProt P55265)
lipoamide; [1]
  thermal stability z-score: 0.419
lipoamide; arsenate co-treatment: none
  thermal stability z-score: 0.448
Potassium arsenate
  thermal stability z-score: -1.48

## ADAT2 (UniProt Q7Z6V5)
lipoamide; [1]
  thermal stability z-score: -0.663
lipoamide; arsenate co-treatment: none
  thermal stability z-score: -0.376
Potassium arsenate
  thermal stability z-score: -0.708

## ADAT3 (UniProt Q96EY9)
lipoamide; [1]
  thermal stability z-score: -0.293
lipoamide; arsenate co-treatment: none
  thermal stability z-score: 0.276
Potassium arsenate
  thermal stability z-score: -0.301

## ADCK1 (UniProt Q86TW2)
lipoamide; [1]
  thermal stability z-score: 0.36
lipoamide; arsenate co-treatment: none
  thermal stability z-score: -0.122
Potassium arsenate
  thermal stability z-score: -0.00585

## ADCK3 (UniProt Q8NI60)
Sequence of UniProt Q8NI60 (Q8NI60 whole entry, looked up): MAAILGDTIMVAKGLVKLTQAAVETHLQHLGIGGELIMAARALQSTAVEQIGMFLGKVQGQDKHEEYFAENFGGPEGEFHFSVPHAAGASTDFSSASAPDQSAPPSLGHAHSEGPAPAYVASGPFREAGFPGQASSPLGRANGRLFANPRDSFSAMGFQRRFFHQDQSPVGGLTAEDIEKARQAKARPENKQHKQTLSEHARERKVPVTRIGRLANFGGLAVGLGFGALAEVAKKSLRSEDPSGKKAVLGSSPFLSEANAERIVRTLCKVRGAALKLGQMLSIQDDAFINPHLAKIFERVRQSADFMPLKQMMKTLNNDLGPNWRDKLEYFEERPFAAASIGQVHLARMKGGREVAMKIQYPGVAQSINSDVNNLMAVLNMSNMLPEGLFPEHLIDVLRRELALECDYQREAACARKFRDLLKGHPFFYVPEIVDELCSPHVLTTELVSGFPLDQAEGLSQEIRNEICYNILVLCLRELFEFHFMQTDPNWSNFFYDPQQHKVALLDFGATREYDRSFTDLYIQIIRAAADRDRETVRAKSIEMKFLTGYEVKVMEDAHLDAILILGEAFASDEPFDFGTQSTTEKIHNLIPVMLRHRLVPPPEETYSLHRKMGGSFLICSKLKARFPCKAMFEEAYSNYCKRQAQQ
lipoamide; [1]
  thermal stability z-score: -0.0263
lipoamide; arsenate co-treatment: none
  thermal stability z-score: 0.19
Potassium arsenate
  thermal stability z-score: 0.0575

## ADCK4 (UniProt Q96D53)
Sequence of UniProt Q96D53 (Q96D53 whole entry): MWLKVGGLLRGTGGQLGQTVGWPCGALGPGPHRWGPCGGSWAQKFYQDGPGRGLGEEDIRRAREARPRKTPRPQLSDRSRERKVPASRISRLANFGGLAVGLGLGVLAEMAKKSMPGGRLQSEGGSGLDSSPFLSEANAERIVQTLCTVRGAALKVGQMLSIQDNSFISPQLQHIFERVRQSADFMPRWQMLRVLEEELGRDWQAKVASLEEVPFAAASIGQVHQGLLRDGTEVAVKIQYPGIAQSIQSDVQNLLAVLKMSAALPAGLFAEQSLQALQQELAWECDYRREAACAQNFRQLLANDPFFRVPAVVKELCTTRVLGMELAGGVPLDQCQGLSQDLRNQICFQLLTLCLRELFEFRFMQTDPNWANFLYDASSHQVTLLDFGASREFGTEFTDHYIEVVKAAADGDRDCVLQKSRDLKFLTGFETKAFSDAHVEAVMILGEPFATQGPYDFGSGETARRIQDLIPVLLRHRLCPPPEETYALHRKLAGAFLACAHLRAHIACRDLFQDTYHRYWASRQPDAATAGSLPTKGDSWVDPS
lipoamide; [1]
  thermal stability z-score: -2.27
lipoamide; arsenate co-treatment: none
  thermal stability z-score: -0.801
Potassium arsenate
  thermal stability z-score: -0.165

## ADCY9 (UniProt O60503)
lipoamide; [1]
  thermal stability z-score: 0.368
lipoamide; arsenate co-treatment: none
  thermal stability z-score: 0.853
Potassium arsenate
  thermal stability z-score: 0.26

## ADD1 (UniProt P35611)
lipoamide; [1]
  thermal stability z-score: -0.281
lipoamide; arsenate co-treatment: none
  thermal stability z-score: -0.308
Potassium arsenate
  thermal stability z-score: -0.913

## ADD3 (UniProt Q9UEY8)
lipoamide; [1]
  thermal stability z-score: -0.112
lipoamide; arsenate co-treatment: none
  thermal stability z-score: 0.162
Potassium arsenate
  thermal stability z-score: -0.362

## ADGRG2 (UniProt Q8IZP9)
lipoamide; [1]
  thermal stability z-score: -0.0216
lipoamide; arsenate co-treatment: none
  thermal stability z-score: 0.386
Potassium arsenate
  thermal stability z-score: -0.592

## ADH5 (UniProt P11766)
lipoamide; [1]
  thermal stability z-score: 1.89
lipoamide; arsenate co-treatment: none
  thermal stability z-score: 0.761
Potassium arsenate
  thermal stability z-score: -1.99
